Results from article PMC7269503 (Antimicrobial Agents and Chemotherapy, 2020).
Values after ≈ are worked out from the molar mass of the structure shown. Values joined by “and” are separate entries in the source; they are usually repeats but may differ in a detail not shown here. Equal values may be shown once. Read-outs that look alike come from different tables or passages of the source.

Assays:
M. tuberculosis = settings: cited from earlier work
[1] = lungs of mice; cited from earlier work
[2] = system: growing M. tuberculosis H37Rv; type: cell-based
M. tuberculosis Kurono [3] = type: in vivo; settings: oral 5 days per week, 4 weeks; OPC-167832 0.625, DMD 0.625, BDQ 5, LVX 300, LZD 100 mg/kg
[4] = lung
[5] = system: M. tuberculosis ATCC 35828 (H37Rv PZA-R); test: MIC by agar proportion method, standard strain; type: cell-based; settings: Mycobacterium tuberculosis; […]; agar proportion method; read-out: MIC
M. africanum ATCC 25420 = test: MIC by agar proportion method, standard strain; type: cell-based; settings: ATCC25420; M. africanum ATCC 25420; agar proportion method; read-out: MIC
[6] = system: intracellular M. tuberculosis H37Rv; test: microbe, parasite or virus in culture; type: cell-based
[7] = system: M. tuberculosis ATCC 35837 (H37Rv EMB-R); test: MIC by agar proportion method, standard strain; type: cell-based; settings: Mycobacterium tuberculosis; […]; agar proportion method; read-out: MIC
M. tuberculosis Kurono [8] = test: Monotherapy in a mouse model of chronic TB; type: in vivo
[9] = system: 27 strains of M. tuberculosis; test: Checkerboard agar dilution assay; type: cell-based; settings: combined with DMD, MXF, LVX, BDQ, or LZD
Method: FIG 4 In vitro combination effects of OPC-167832 and other anti-TB agents (checkerboard assay). The in vitro combination effects of OPC-167832 and existing anti-TB agents against 27 strains of M. tuberculosis were examined by the checkerboard agar dilution method. CI, confidence interval.
The checkerboard procedure was performed using the MICs of tested agents against the bacterial strains established by an agar dilution method reported previously ([36]). The level of synergy was determined by calculating the FIC index based on the following formulas: ΣFIC = FIC of compound A + FIC of compound B; FIC of compound A = MIC of compound A in combination ÷ MIC of compound A alone; FIC of compound B = MIC of compound B in combination ÷ MIC of compound B alone. The average ΣFIC value was interpreted using the European Committee on Antimicrobial Susceptibility Testing criteria ([37]) with the following values: ≤0.5, synergy; >0.5 to 1, additive effect; >1 to 2, indifference; >2, antagonism). The averages of the ΣFIC values and the 95% confidence intervals for the tested bacterial strains were calculated.

M. microti ATCC 11152 = test: MIC by agar proportion method, standard strain; type: cell-based; settings: ATCC11152; M. microti ATCC 11152; agar proportion method; read-out: MIC
[10] = system: M. tuberculosis ATCC 27294 (H37Rv); test: MIC by agar proportion method, standard strain; type: cell-based; settings: Mycobacterium tuberculosis; ATCC 27294 (H37Rv); agar proportion method; […]; read-out: MIC
[11] = system: M. pinnipedii ATCC BAA-688; test: MIC by agar proportion method, standard strain; type: cell-based; settings: ATCCBAA688; M. pinnipedii ATCC BAA-688; agar proportion method; read-out: MIC
[12] = system: M. tuberculosis ATCC 35820 (H37Rv SM-R); test: MIC by agar proportion method, standard strain; type: cell-based; settings: Mycobacterium tuberculosis; […]; agar proportion method; read-out: MIC
[13] = system: M. tuberculosis ATCC 35838 (H37Rv RIF-R); test: MIC by agar proportion method, standard strain; type: cell-based; settings: Mycobacterium tuberculosis; […]; agar proportion method; read-out: MIC
M. bovis ATCC BAA-935 = test: microbe, parasite or virus in culture; type: cell-based; settings: Mycobacterium tuberculosis variant bovis, ATCCBAA935
[14] = system: clinically isolated M. tuberculosis strains; type: cell-based; settings: summary in abstract
in vivo = settings: ICR, mouse
[15] = system: M. tuberculosis ATCC 35812 (Kurono); test: MIC by agar proportion method, standard strain; type: cell-based; settings: Mycobacterium tuberculosis, ATCC35812; ATCC 35812 (Kurono); agar proportion method; read-out: MIC
[16] = system: standard strains of nonmycobacterial aerobic and anaerobic bacteria; test: Activity against nonmycobacterial bacteria; type: cell-based; settings: data not shown
M. caprae ATCC BAA-824 = test: MIC by agar proportion method, standard strain; type: cell-based; settings: ATCCBAA824; M. caprae ATCC BAA-824; agar proportion method; read-out: MIC
[17] = system: intracellular M. tuberculosis Kurono; test: microbe, parasite or virus in culture; type: cell-based
[18] = system: M. tuberculosis ATCC 35822 (H37Rv INH-R); test: MIC by agar proportion method, standard strain; type: cell-based; settings: Mycobacterium tuberculosis; […]; agar proportion method; read-out: MIC

CCOC(=O)NC(=O)c1ccsc1NC(=O)c1nc2ccccc2s1 [TCA1]
MIC (M. tuberculosis): 0.19 µg/mL (≈ 506 nM)

O=c1nc(N2CCN(CC3CCCCC3)CC2)sc2c([N+](=O)[O-])cc(C(F)(F)F)cc12 [PBTZ169]
Kp (tissue to plasma partition coefficient), lungs [1]: 0.415

O=C1CCc2c(OC[C@]3(O)CCN(c4c(F)cc(Cl)cc4F)C[C@H]3O)ccc(F)c2N1 [OPC-167832]
concentration at which killing activity was achieved [2]: 0.0005 µg/mL
lung CFU compared to the vehicle group, single agent (M. tuberculosis Kurono [3]): significant decrease of lung CFU
AUCt ([4]; 0.625 mg/kg oral, t: 8h): 505 ng·h/g
AUCt ([4]; 1.25 mg/kg oral, t: 8h): 909 ng·h/g
AUCt ([4]; 2.5 mg/kg oral, t: 8h): 2133 ng·h/g
AUCt ([4]; 5 mg/kg oral, t: 12h): 4742 ng·h/g
AUCt ([4]; 10 mg/kg oral, t: 12h): 7410 ng·h/g
MIC [5]: 1 ng/mL (≈ 2.19 nM)
MIC (M. africanum ATCC 25420): 2 ng/mL (≈ 4.38 nM)
concentration at which intracellular bactericidal activity was saturated [6]: ≥ 0.004 µg/mL
bactericidal activity against intracellular bacilli ([6]; H37Rv in THP-1-derived macrophage-like cells, 3 days): killed the intracellular bacilli
IC90 ([6]; Mycobacterium tuberculosis, H37RV, THP-1, read-out: 90% inhibitory concentration (IC90)): 4.8 ng/mL (≈ 10.5 nM)
MIC [7]: 2 ng/mL (≈ 4.38 nM)
lung CFU compared to the vehicle group (M. tuberculosis Kurono [8]; 0.625, 1.25, 2.5, 5 and 10 mg/kg oral daily, 4 weeks, ICR female mice): significantly reduced lung CFU
minimum effective dose (M. tuberculosis Kurono [8]; mouse model of chronic TB, oral): 0.625 mg/kg
interactive effect (mean FIC index) [9]: indifferent effect
MIC (M. microti ATCC 11152): 1 ng/mL (≈ 2.19 nM)
MIC [10]: 0.5 ng/mL (≈ 1.09 nM)
MIC [11]: 0.5 ng/mL (≈ 1.09 nM)
MIC [12]: 1 ng/mL (≈ 2.19 nM)
MIC [13]: 0.5 ng/mL (≈ 1.09 nM)
MIC (M. bovis ATCC BAA-935): 2 ng/mL (≈ 4.38 nM)
MICs for Mycobacterium tuberculosis (overall range) [14]: 0.00024 to 0.002 µg/mL
Kp (in vivo): 1.67 to 1.96
Kp (in vivo; female, po): ~2
Tmax (in vivo; female, po): 0.5 to 1 h
AUC(0-t) (in vivo; female, po, 0.625 mg/kg): 283 ng·h/mL
Cmax (in vivo; female, po, 0.625 mg/kg): 162 ng/g
Tmax (in vivo; female, po, 0.625 mg/kg): 1 h
half-life (in vivo; female, po, 0.625 mg/kg, t1/2, lung, 0.625 mg/kg oral, calculated 2 - 8h): 84 min
half-life (in vivo; female, po, 0.625 mg/kg, t1/2, plasma, 0.625 mg/kg oral, calculated 2 - 8h): 96 min
AUC(0-t) (in vivo; female, po, 1.25 mg/kg): 543 ng·h/mL
Cmax (in vivo; female, po, 1.25 mg/kg): 303 ng/g and 200 ng/mL
Tmax (in vivo; female, po, 1.25 mg/kg): 1 h
half-life (in vivo; female, po, 1.25 mg/kg, t1/2, lung, 1.25 mg/kg oral, calculated 4 - 8h): 120 min
half-life (in vivo; female, po, 1.25 mg/kg, t1/2, plasma, 1.25 mg/kg oral, calculated 2 - 12h): 90 min
AUC(0-t) (in vivo; female, po, 2.5 mg/kg): 1140 ng·h/mL
Cmax (in vivo; female, po, 2.5 mg/kg): 314 ng/mL and 651 ng/g
Tmax (in vivo; female, po, 2.5 mg/kg): 0.5 h
half-life (in vivo; female, po, 2.5 mg/kg, t1/2, lung, 2.5 mg/kg oral, calculated 2 - 8h): 78 min
half-life (in vivo; female, po, 2.5 mg/kg, t1/2, plasma, 2.5 mg/kg oral, calculated 6 - 12h): 78 min
AUC(0-t) (in vivo; female, po, 5 mg/kg): 2650 ng·h/mL
Cmax (in vivo; female, po, 5 mg/kg): 758 ng/mL and 1360 ng/g
Tmax (in vivo; female, po, 5 mg/kg): 1 h
half-life (in vivo; female, po, 5 mg/kg, t1/2, lung, 5 mg/kg oral, calculated 2 - 12h): 126 min
half-life (in vivo; female, po, 5 mg/kg, t1/2, plasma, 5 mg/kg oral, calculated 2 - 12h): 126 min
AUC(0-t) (in vivo; female, po, 10 mg/kg): 3780 ng·h/mL
Cmax (in vivo; female, po, 10 mg/kg): 1090 ng/mL and 2220 ng/g
Tmax (in vivo; female, po, 10 mg/kg): 1 h
half-life (in vivo; female, po, 10 mg/kg, t1/2, lung, 10 mg/kg oral, calculated 6 - 12h): 126 min
half-life (in vivo; female, po, 10 mg/kg, t1/2, plasma, 10 mg/kg oral, calculated 2 - 12h): 96 min
half-life (in vivo; female, po, half-life (t1/2), plasma, oral doses 0.625 to 10 mg/kg): 78 to 126 min
MIC [15]: 0.5 ng/mL (≈ 1.09 nM)
activity against nonmycobacterial aerobic and anaerobic bacteria [16]: minimal or no activity
MIC (M. caprae ATCC BAA-824): 1 ng/mL (≈ 2.19 nM)
bactericidal activity against intracellular bacilli ([17]; Kurono in THP-1-derived macrophage-like cells, 3 days): killed the intracellular bacilli
IC90 ([17]; Mycobacterium tuberculosis, THP-1, read-out: 90% inhibitory concentration (IC90)): 2.7 ng/mL (≈ 5.91 nM)
MIC [18]: 0.24 ng/mL (≈ 0.525 nM)
